Measured values from US20070093455A1, “10-substituted tetracyclines and methods of use thereof” (priority 2005, published 2007).
Converted amounts (≈) assume the structure as drawn.

What was measured:
S. aureus MRSA5 = assay: In vitro MIC assay, S. aureus MRSA5; assay type: cell-based; settings: Staphylococcus aureus, broth microdilution, 35° C., 18-24 hours
S. aureus RN4250 = assay: In vitro MIC assay, S. aureus RN4250; assay type: cell-based; settings: Staphylococcus aureus, broth microdilution, 35° C., 18-24 hours
E. coli MG 1655 DWAK = assay: In vitro MIC assay, E. coli MG 1655 DWAK; assay type: cell-based; settings: Escherichia coli, MG1655DWAK; broth microdilution, 35° C., 18-24 hours
Description: The following assay was used to determine the efficacy of tetracycline compounds against common bacteria. Serial dilutions of compounds were prepared in microdilution plates using a Tecan robotic workstation. Mueller Hinton broth cultures of gram negative and gram positive strains were grown or adjusted to match the turbidity of a 0.5 McFarland standard. 1:200 dilutions were made in appropriate broth (cation supplemented Mueller Hinton broth or Haemophilus test medium) to allow a final inoculum of 1×10^5 cfu. Lysed horse blood was used to supplement broth for testing S. pneumoniae. The plates were incubated at 35° C. in ambient air for 18-24 hours, read spectrophotometrically, and checked manually for evidence of bacterial growth. Serial dilutions of compounds were also added to Brucella agar supplemented with laked sheep blood for P. acnes tests. A standard inoculum was transferred to the plate using a stainless steel replicator. After 48 hours of anaerobic incubation at 35° C. plates were examined. The MIC was defined as the lowest concentration of the tetracycline compound that inhibits growth. Table 3 gives the MIC (μg/mL) of selected substituted tetracycline compounds against a variety of gram positive and gram negative bacteria.

E. coli translation = assay: In vitro translation assay for inhibition of bacterial protein synthesis (E. coli S30 Extract System, luciferase); assay type: biochemical; settings: 37° C., 1 hour, luciferase luminescence
Description: As a further measure of antibacterial activity, an E. coli S30 Extract System was used to quantitate inhibition of E. coli translation by tetracycline derivatives. This system contained all required components for translation, including a nucleic acid template which, when translated, produces functional luciferase. The reactions were set up with E. coli S30 extract, amino acids, DNA template and selected tetracycline compounds at concentrations of 100, 50, 25, 10, 5, and 1 μg/ml. The reactions were incubated at 37° C. for 1 hour and analyzed by adding the reaction mix to Steady-Glo Luciferase Assay substrate (Promega, Madison Wis.). Luminescence was measured with the Wallac Victor5 plate reader and inhibition is calculated by comparing luciferase activity in experimental reactions versus controls.

S. aureus RN450 = assay: In vitro MIC assay, S. aureus RN450; assay type: cell-based; settings: Staphylococcus aureus, broth microdilution, 35° C., 18-24 hours
P. aeruginosa K1033 = assay: In vitro MIC assay, P. aeruginosa K1033; assay type: cell-based; settings: Pseudomonas aeruginosa, broth microdilution, 35° C., 18-24 hours
E. coli (ATCC 25922) = assay: In vitro MIC assay, E. coli (ATCC 25922); assay type: cell-based; settings: Escherichia coli, ATCC25922; broth microdilution, 35° C., 18-24 hours
[1] = tested on: H. influenza (ATCC 49247); assay: In vitro MIC assay, H. influenza (ATCC 49247); assay type: cell-based; settings: read-out: MIC H. influenza (ATCC 49247)
S. pneumoniae 157E = assay: In vitro MIC assay, S. pneumoniae 157E; assay type: cell-based; settings: Streptococcus pneumoniae, broth supplemented with lysed horse blood, 35° C., 18-24 hours
COS-1 or CHO cell = assay: Mammalian cell cytotoxicity assay (Resazurin; Alamar Blue); assay type: cell-based; settings: COS-1 or CHO cells, 24 hour incubation
Description: To predict the in vivo risks associated with the compounds of the invention, a soluble, non-toxic redox dye (“Resazurin”; Alamar Blue) was used to assess a compound's effect on cellular metabolism. COS-1 or CHO cell suspensions were prepared, seeded into 96-well black-walled microtiter plates, and incubated overnight at 37° C., in 5% CO2 and approximately 95% humidity. On the next day, serial dilutions of test drug were prepared and transferred to cell plates. Following a 24 hour incubation period, the media/drug was aspirated, and 50 μL of resazurin was added. After a 2 hour incubation, fluorescence measurements were taken (excitation […], emission 590 nm) and toxic effects in treated versus control cells were compared based on the degree of fluorescence in each well.

[2] = tested on: Mouse 3T3 fibroblast cells; assay: Phototoxicity assay (neutral red); assay type: cell-based; settings: 3T3 cells; for phototoxicity at 30 μM, incubated in the UV light: UV light 1.6-1.8 mW/cm^2, 30 μM
Description: Mouse 3T3 fibroblast cells were harvested and plated at a concentration of 1×10^5 cells/mL. Drug dilutions were made in HBSS and added to the plates. Duplicate plates were then incubated in the dark (for controls), or under UV light (meter reading of 1.6-1.8 mW/cm^2) for 50 minutes. Cells were then washed with HBSS, fresh medium was added, and plates were then incubated overnight. The following day, neutral red was added as an indicator of cell viability and plates were incubated for an additional 3 hours. Cells were then washed with HBSS and a solution of 50% EtOH, 10% glacial acetic acid is added. After a 20 minute incubation period, plates absorbance at 535 nm were read using a Wallac Victor 5 spectrophotometer. The phototoxicity in light-treated and control cultures was then compared.

| Compound | MIC (S. aureus MRSA5) [µg/mL] | MIC (S. aureus RN4250) [µg/mL] | MIC (E. coli MG 1655 DWAK) [µg/mL] | IC20 (E. coli translation) [µM] | IC50 (E. coli translation) [µM] | MIC (S. aureus RN450) [µg/mL] | MIC (P. aeruginosa K1033) [µg/mL] | MIC (E. coli (ATCC 25922)) [µg/mL] | MIC [1] [µg/mL] | MIC (S. pneumoniae 157E) [µg/mL] | cytotoxicity at 75 μg/mL (COS-1 or CHO cell) | phototoxicity at 150 μM, incubated in the dark [2] | phototoxicity at 30 μM, incubated in the UV light [2] |
| --- | --- | --- | --- | --- | --- | --- | --- | --- | --- | --- | --- | --- | --- |
| CN(C)[C@@H]1C(O)=C(C(N)=O)C(=O)[C@@]2(O)C(O)=C3C(=O)c4c(cccc4OS(=O)(=O)C(F)(F)F)CC3CC12 (stereo partly shown) [O] | 22 to 43 (≈ 40.3 to 78.7 µM) | 22 to 43 (≈ 40.3 to 78.7 µM) | 0 to 21 | < 100 | < 100 | 22 to 43 (≈ 40.3 to 78.7 µM) | 0 to 21 | 44 to 64 (≈ 80.5 to 117 µM) | 44 to 64 (≈ 80.5 to 117 µM) | 44 to 64 (≈ 80.5 to 117 µM) | – | – | – |
| CC(=O)c1cccc2c1C(=O)C1=C(O)[C@]3(O)C(=O)C(C(N)=O)=C(O)[C@@H](N(C)C)C3CC1C2 (stereo partly shown) [N] | 44 to 64 (≈ 99.9 to 145 µM) | 44 to 64 (≈ 99.9 to 145 µM) | 0 to 21 | < 100 | < 100 | 22 to 43 (≈ 49.9 to 97.6 µM) | 0 to 21 | 44 to 64 (≈ 99.9 to 145 µM) | 44 to 64 (≈ 99.9 to 145 µM) | 44 to 64 (≈ 99.9 to 145 µM) | minimal cytotoxicity | – | – |
| CC(=O)c1cc2c(c(N(C)C)c1)CC1CC3[C@H](N(C)C)C(O)=C(C(N)=O)C(=O)[C@@]3(O)C(O)=C1C2=O (stereo partly shown) [H] | 44 to 64 (≈ 91 to 132 µM) | 44 to 64 (≈ 91 to 132 µM) | 22 to 43 (≈ 45.5 to 88.9 µM) | < 100 | < 100 | 44 to 64 (≈ 91 to 132 µM) | 22 to 43 (≈ 45.5 to 88.9 µM) | 44 to 64 (≈ 91 to 132 µM) | 44 to 64 (≈ 91 to 132 µM) | 44 to 64 (≈ 91 to 132 µM) | minimal cytotoxicity | not to be appreciably phototoxic | – |
| NC(=O)C1=C(O)CC2CC3Cc4ccccc4C(=O)C3=C(O)[C@]2(O)C1=O (stereo partly shown) [F] | 0 to 21 | 0 to 21 | 0 to 21 | < 100 | < 100 | 0 to 21 | 0 to 21 | 44 to 64 (≈ 124 to 180 µM) | 0 to 21 | 22 to 43 (≈ 61.9 to 121 µM) | – | not to be appreciably phototoxic | – |
| CC1CCN(c2cccc3c2C(=O)C2=C(O)[C@]4(O)C(=O)C(C(N)=O)=C(O)[C@@H](N(C)C)C4CC2C3)CC1 (stereo partly shown) [M] | 44 to 64 (≈ 88.8 to 129 µM) | 44 to 64 (≈ 88.8 to 129 µM) | 0 to 21 | < 100 | < 100 | 44 to 64 (≈ 88.8 to 129 µM) | 0 to 21 | 44 to 64 (≈ 88.8 to 129 µM) | 0 to 21 | 22 to 43 (≈ 44.4 to 86.8 µM) | minimal cytotoxicity | not to be appreciably phototoxic | minimally phototoxic |
| CN(C)c1cc(C(=O)O)cc2c1CC1CC3[C@H](N(C)C)C(O)=C(C(N)=O)C(=O)[C@@]3(O)C(O)=C1C2=O (stereo partly shown) [D] | 44 to 64 (≈ 90.6 to 132 µM) | 44 to 64 (≈ 90.6 to 132 µM) | 44 to 64 (≈ 90.6 to 132 µM) | < 100 | < 100 | 44 to 64 (≈ 90.6 to 132 µM) | 44 to 64 (≈ 90.6 to 132 µM) | 44 to 64 (≈ 90.6 to 132 µM) | 44 to 64 (≈ 90.6 to 132 µM) | 44 to 64 (≈ 90.6 to 132 µM) | minimal cytotoxicity | not to be appreciably phototoxic | minimally phototoxic |
